The structures appear in SMILES notation.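 Cultured in 96-well plates, cells were exposed to test compound for 48 hours across five concentrations. The concentration for 50% growth inhibition is given as GI50. Definition used: TGI = concentration required for complete inhibition of growth.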

Common to all, as to experiment: inhibition of tumour cell growth, NCI panel, 48 h
For assay [1], the system named is SF-539 CNS.
Assay [2] has as its system OVCAR-5 ovarian.
For assay [3], the system named is HOP-92 NSCLC.
The test system of assay [4] is COLO 205 colon.
Assay [5] relates to 786-0 renal.
The subject of assay [6] is T-47D breast.
Assay [7] deals with MDA-MB-435.
The subject of assay [8] is CCRF-CEM leukemia.
Assay [9] deals with RXF 393 renal.
In assay [10] the test system is A498 renal.

On to `C=C1C(=O)OC2C1CC(OC(C)=O)/C(C)=C/CCC1(C)OC21` (configuration not stated), for which the TGI in [1], in assay [2], in [3], in assay [4], in assay [5] and in assay [6] was over 100 µM in each case. The TGI in [7] and in assay [8] was over 100 µM in each case.
`COc1cc(/C=C2\CCC/C(=C\c3ccc(OCC4CO4)c(OC)c3)C2=O)ccc1OCC1CO1` (configuration not stated): the GI50 in [1] is 2.4 µM; in assay [2], 2.87 µM; in assay [3] it was 3.3 µM; in assay [4], 2 µM; in [9] it was 1.6 µM; in assay [5], 2.04 µM. For the same molecule, the results for the GI50 in [6], in [10] and in [8] were 2.98 µM, 3.62 µM and 2.5 µM, respectively. For the same molecule, the TGI in [1] was 6.78 µM; in [2] it was 10.6 µM; in assay [3], over 100 µM; in [4], 3.54 µM; in assay [9], 3.05 µM; in assay [5] it was 3.85 µM. In addition, the results for the TGI in assay [6], in [10] and in assay [8] were 12.2 µM, 10.1 µM and over 100 µM, respectively.
With `COc1ccc(-c2cc(-c3ccc(Nc4ccnc5cc(Cl)ccc45)cc3)nc(N3CCOCC3)n2)cc1`, the GI50 is over 100 µM in assay [2]; 4.83 µM in assay [3]; 3.14 µM in assay [4]; 2.21 µM in [9]; 2.26 µM in [5]; 2.92 µM in [7]. For the same molecule, the GI50 in assay [10] is 27.5 µM. Further, the TGI in assay [2] is over 100 µM; in assay [3], 49.4 µM; in assay [4] it was over 100 µM; in [9], 5.35 µM; in [5], 5.72 µM; in assay [7] it was over 100 µM. For the same molecule, the TGI in [10] worked out at 86.7 µM.
For `COc1ccc2c(c1)C(C)Cc1c(ncnc1-n1cnc3ccccc31)N2C` (configuration not stated), the GI50 in assay [1] was 0.251 µM; in assay [2] it was 6.21 µM; in [3], 0.441 µM; in [4], 0.33 µM; in [5], 0.591 µM; in [6], 0.432 µM. Further, the GI50 was 0.2 µM in assay [7], 0.234 µM in assay [10] and 0.481 µM in [8]. Besides, the TGI in [1] was 0.774 µM; in [2], 43.9 µM; in assay [3], 8.23 µM; in assay [4] it was 1.37 µM; in [5], 19.6 µM; in assay [6], 64.6 µM. The figures for the TGI in assay [7], in [10] and in assay [8] were 0.605 µM, 10.2 µM and 20.5 µM, respectively.
For `C=C1C(O)C2C(=C(C)C13CC3)C(=O)C(C)(C)C2OC` (configuration not stated), the GI50 is over 100 µM in [1]; over 100 µM in assay [2]; 24.8 µM in assay [3]; 95.6 µM in assay [4]; over 100 µM in assay [9]; over 100 µM in assay [5]. In addition, the GI50 in assay [6] is 23.1 µM; in [7], over 100 µM; in [8], 78.3 µM. Moreover, the TGI in assay [1], in assay [2], in assay [3], in assay [4], in assay [9] and in assay [5] was over 100 µM in each case. The TGI in [6] is 67.8 µM; in assay [7], over 100 µM; in assay [8], over 100 µM.
For `Cc1cc(NCCCCNc2ccnc3cc(Cl)ccc23)nc(Nc2ccc(C(=O)N3CCCCC3)cc2)n1`, the GI50 was 3.04 µM in assay [2]; 1.21 µM in assay [3]; 1.76 µM in assay [4]; 1.24 µM in assay [9]; 1.42 µM in assay [5]; 2.52 µM in [6]. Also, the GI50 was 1.82 µM in assay [7], 1.61 µM in assay [10] and 0.608 µM in assay [8]. Also, the TGI amounted to 9.22 µM in assay [2]; 3.03 µM in [3]; 3.51 µM in assay [4]; 2.73 µM in assay [9]; 2.97 µM in [5]; 5.94 µM in [6]. The TGI in assay [7] is 3.42 µM; in assay [10], 3.72 µM; in [8], 7.55 µM.
For `COC(=O)[C@]12CC[C@@H](C)[C@H](C)[C@@H]1C1=CC[C@@H]3[C@@]4(C)C(C=O)=C[C@@](C)(COC(=O)c5ccco5)[C@@H]4[C@H](O)C[C@@]3(C)[C@]1(C)CC2`, the GI50 is 1.89 µM in assay [1]; 3 µM in assay [2]; 1.56 µM in assay [3]; 0.0493 µM in [4]; 2.4 µM in [5]; 2.37 µM in assay [6]. Besides, the GI50 in [10] is 3.19 µM; in assay [8] it was 2.54 µM. Besides, the TGI in assay [1] amounted to 3.93 µM; in [2], 9.72 µM; in [3], 4.27 µM; in [4] it was 0.355 µM; in [5], 7.13 µM; in [6] it was 39.5 µM. The TGI in assay [10] was determined as 12.7 µM; in assay [8], 7.58 µM.
Regarding `COC(=O)C(=O)CC(=O)c1cccc(OC)c1`, the TGI in assay [1], in assay [2], in [4], in assay [9], in assay [5] and in assay [6] was over 100 µM throughout. Moreover, the TGI in assay [7], in assay [10] and in assay [8] was over 100 µM each time.
For the molecule `Oc1ccc(Oc2cnc3ccccc3n2)cc1`, the GI50 is 77.2 µM in assay [1]; over 100 µM in [2]; over 100 µM in [4]; 34.3 µM in assay [9]; over 100 µM in assay [5]; 84.5 µM in [6]. Further, the GI50 is over 100 µM in [7], 37.2 µM in assay [10] and 24.2 µM in [8]. Moreover, the TGI in assay [1], in [2], in [4], in assay [9], in assay [5] and in assay [6] was over 100 µM throughout. Besides, the TGI in assay [7], in assay [10] and in [8] was over 100 µM throughout.

Source of the values: PubChem BioAssay (NCI).
